From publication PMC9572083, “Hybrids of 1,4-Quinone with Quinoline Derivatives: Synthesis, Biological Activity, and Molecular Docking with DT-Diaphorase (NQO1)” (Molecules, 2022)

Columns and labels:
[1] = system: Colo-829 cells; assay: Cytotoxic activity, WST-1 assay, melanoma Colo-829; type: cell-based, human; details: for SI (IC50 HFF-1/IC50 cancer line) Colo-829: HFF-1 vs Colo-829; for IC50: Homo sapiens, melanoma Colo-829, 72 h, WST-1
Text: (§1) Anticancer activity of compounds 11–14 was designated against following human cancer cell lines: melanoma (Colo-829), ovarian cancer (SK-OV-3), breast cancer (MDA-MB-231, T47D and MCF-7), lung cancer (A549) and normal fibroblasts (HFF-1). As a reference substance, the doxorubicin was used. The results are presented in Table 1 as IC50, where IC50 means the concentration of tested compounds (µM) causing the growth inhibition of 50% for given tumor cells. The negative value (Neg.) means that the IC50 is higher than 30 µM. Selectivity index (SI) as the ratio of the IC50 for normal fibroblast (HFF-1) to IC50 of the corresponding cell line, is presented in Table S2.
(§2) Compounds 7–14 and doxorubicin were tested for cytotoxic activity in vitro against panel of human cancer cell lines: melanoma (Colo-829, ATCC, Rockville, MD, USA), ovarian cancer (SK-OV-3, ATCC, Rockville, MD, USA), breast cancer (T47D, MCF-7, and MDA-MB-231, ATCC, Rockville, MD, USA) and lung cancer (A549, ATCC, Rockville, MD, USA). The cultured cells were kept at 37 °C and 5% CO2. The cells were seeded (5 × 10^4 cells/well/[…] DMEM supplemented with 10% FCS and streptomycin/penicillin) using 96-well plates (Nunc Thermo Fisher Scientific, Waltham, MA, USA). The tested compounds 7–14 with the concentration of 1–100 µg/mL DMSO were inducted with the cancer cells for 72 h. The WST-1-formazan (proliferation reagent WST-1 assay, Roche Diagnostics, Mannheim, Germany) was detected using a microplate reader at 450 nm. Results were expressed as a mean value of at least three independent experiments performed in triplicate.

[2] = molecular target: T1, NQO1 (DT-diaphorase, EC 1.6.5.5, human recombinant) (Homo sapiens, UniProt P15559); assay: NQO1 substrate NADPH recycling enzymatic assay; type: biochemical; details: for NQO1 activity (enzymatic conversion rate): compound 10 µmol/L, pH 7.4, 25 °C, absorbance at 340 nm
T1 construct: purchased Sigma-Aldrich
Experimental: The interaction between 1,4-quinone moiety of hybrid and NQO1 protein leads to reduction in quinone to hydroquinone and production of reactive oxide form (ROS). According to a literature method, the ability of hybrids 11–14 and streptonigrin (ST) to be a substrate for NQO1 was examined by measuring the oxidation of NADPH to NADP^+ [29, 32].
Compounds 11–14 (10 µmol/L) were tested as NQO1 substrates using the NADPH recycling assay according to the literature method. The recombinant NQO1 (DT-diaphorase, EC 1.6.5.5, human recombinant, Sigma-Aldrich) was used, and the oxidation of NADPH to NADP^+ was measured at the absorption wavelength of 340 nm on the BioTek 800TS microplate reader (BioKom, Janki, Poland). Compounds were dissolved in dimethyl sulfoxide (2 µL) and added to the 96-well plate. The NQO1 protein (1.4 µg/mL) in 50 mmol/L potassium phosphate buffer (pH = 7.4) was added to each well (198 µL) (Nunc Thermo Fisher Scientific, Waltham, MA, USA). Once the 96-well plate was filled with the assay solutions, except the NADPH solution, it was placed into the instrument and left to sit for 5 min before starting the measurements. The enzymatic reaction was initiated by automatically dispensing the NADPH solution into the wells, and data were recorded at 10 s intervals for 5 min at 25 °C. The linear part of the absorbance vs. time graphs (the first 20 s to 1 min) was fitted, and the slopes were calculated. NADPH oxidation rates were compared with reactions lacking the tested compound. Initial velocities were calculated, and data were expressed as µmol NADPH/µmol NQO1/min. All reactions were carried out at least in triplicate.

[3] = system: A549 cells; assay: Cytotoxic activity, WST-1 assay, lung cancer A549; type: cell-based, human; details: for SI (IC50 HFF-1/IC50 cancer line) A549: HFF-1 vs A549; for IC50: Homo sapiens, lung cancer A549, 72 h, WST-1
Text: as §1, §2

[4] = system: MDA-MB-231 cells; assay: Cytotoxic activity, WST-1 assay, breast cancer MDA-MB-231; type: cell-based, human; details: for SI (IC50 HFF-1/IC50 cancer line) MDA-MB-231: HFF-1 vs MDA-MB-231; for IC50: Homo sapiens, breast cancer MDA-MB-231, 72 h, WST-1
Text: as §1, §2

[5] = system: MCF-7 cells; assay: Cytotoxic activity, WST-1 assay, breast cancer MCF-7; type: cell-based, human; details: for SI (IC50 HFF-1/IC50 cancer line) MCF-7: HFF-1 vs MCF-7; for IC50: Homo sapiens, MCF7, breast cancer MCF-7, 72 h, WST-1
Text: as §1, §2

[6] = system: HFF-1 cells; assay: Cytotoxic activity, WST-1 assay, normal fibroblasts HFF-1; type: cell-based; details: Homo sapiens, normal fibroblasts HFF-1, 72 h
Text: as §1, §2

[7] = system: SK-OV-3 cells; assay: Cytotoxic activity, WST-1 assay, ovarian cancer SK-OV-3; type: cell-based, human; details: for SI (IC50 HFF-1/IC50 cancer line) SK-OV-3: HFF-1 vs SK-OV-3; for IC50: Homo sapiens, ovarian cancer SK-OV-3, 72 h, WST-1
Text: as §1, §2

[8] = system: T47D cells; assay: Cytotoxic activity, WST-1 assay, breast cancer T47D; type: cell-based, human; details: for SI (IC50 HFF-1/IC50 cancer line) T47D: HFF-1 vs T47D; for IC50: Homo sapiens, breast cancer T47D, 72 h, WST-1
Text: as §1, §2

T1 sequence (P15559 whole entry): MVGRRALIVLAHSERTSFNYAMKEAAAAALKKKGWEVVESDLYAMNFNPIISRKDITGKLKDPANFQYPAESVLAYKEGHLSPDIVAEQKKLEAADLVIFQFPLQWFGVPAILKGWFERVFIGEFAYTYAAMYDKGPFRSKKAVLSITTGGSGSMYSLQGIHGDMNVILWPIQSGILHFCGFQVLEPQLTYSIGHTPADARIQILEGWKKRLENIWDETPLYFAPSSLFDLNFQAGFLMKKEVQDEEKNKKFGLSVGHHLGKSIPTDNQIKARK

Compound | SI (IC50 HFF-1/IC50 cancer line) Colo-829 [1] | IC50 [1] | NQO1 activity (enzymatic conversion rate) [2] | SI (IC50 HFF-1/IC50 cancer line) A549 [3] | IC50 [3] | SI (IC50 HFF-1/IC50 cancer line) MDA-MB-231 [4] | IC50 [4] | SI (IC50 HFF-1/IC50 cancer line) MCF-7 [5] | IC50 [5] | IC50 [6] | SI (IC50 HFF-1/IC50 cancer line) SK-OV-3 [7] | IC50 [7] | SI (IC50 HFF-1/IC50 cancer line) T47D [8] | IC50 [8] | Enzymatic conversion rate relative to the 2-methyl-5,8-quinolinedione analogue ([2]; 11c vs 12c, 11e vs 12e) | Activity against MCF-7 relative to A549 ([5]; fold more active against MCF-7 than A549) | NQO1 activity (enzymatic conversion rate) ([2]; listed as streptonigrin)
O=C1C(Cl)=C(Oc2cccc3ccc(N4CCOCC4)nc23)C(=O)c2ncccc21 [Compound 11f, 6-chloro-7-{[2-(morpholin-4-yl)quinolin-8-yl]oxy}quinoline-5,8-dione] | 1.83 | 14000 ± 1160 nM | 113 ± 19 µmol NADPH/µmol NQO1/min | 2.03 | 12600 ± 820 nM | 1.86 | 13800 ± 1090 nM | 1.58 | 16210 ± 120 nM | 25640 ± 190 nM | 2.35 | 10900 ± 480 nM | 1.38 | 18600 ± 620 nM | – | – | –
O=C1C(Cl)=C(Oc2cccc3ccc(N4CCCC4)nc23)C(=O)c2ncccc21 [Compound 11e, 6-chloro-7-{[2-(pyrrolidin-1-yl)quinolin-8-yl]oxy}quinoline-5,8-dione] | 0.76 | 15000 ± 320 nM | 1082 ± 51 µmol NADPH/µmol NQO1/min | 0.94 | 12100 ± 1060 nM | 5.81 | 1970 ± 130 nM | 5.64 | 2030 ± 30 nM | 11400 ± 690 nM | 6.66 | 1720 ± 90 nM | 0.55 | 20800 ± 1030 nM | 1.8 times | ~6 times | –
COc1cccc2c1C(=O)c1c(O)c3c(c(O)c1C2=O)C[C@@](O)(C(=O)CO)C[C@@H]3O[C@H]1C[C@H](N)[C@H](O)[C@H](C)O1 [Doxorubicin, doxorubicin, reference compound] | 2.40 | 50 ± 10 nM | – | 6.00 | 20 ± 10 nM | 0.19 | 640 ± 60 nM | 1.00 | 120 ± 50 nM | 120 ± 30 nM | 0.80 | 150 ± 30 nM | 3.00 | 40 ± 10 nM | – | – | –
COC1=C(N)C(=O)c2nc(-c3nc(C(=O)O)c(C)c(-c4ccc(OC)c(OC)c4O)c3N)ccc2C1=O [ST, streptonigrin, reference compound] | – | – | 725 ± 84 µmol NADPH/µmol NQO1/min | – | – | – | – | – | – | – | – | – | – | – | – | – | 725 µmol NADPH/µmol NQO1/min
O=C1C(Cl)=C(Oc2cccc3ccc(N4CCOCC4)nc23)C(=O)c2cnccc21 [Compound 13f, 6-chloro-7-{[2-(morpholin-4-yl)quinolin-8-yl]oxy}isoquinoline-5,8-dione] | 8.76 | 2100 ± 60 nM | 143 ± 26 µmol NADPH/µmol NQO1/min | 15.07 | 1220 ± 80 nM | 141.46 | 130 ± 50 nM | 17.85 | 1030 ± 190 nM | 18400 ± 350 nM | 14.95 | 1230 ± 80 nM | 8.55 | 2150 ± 60 nM | – | – | –
